Assays:
[1] = tested on: NRF2 mediated gene NAD(P)H:quinone acceptor oxidoreductase 1 (NQO1) in BEAS-2B cells; test: Beas2B NQO1 mRNA Cell Based Assay; design: species or system human; conditions: Homo sapiens; BEAS-2B cells, compound for 24 h; increase in NQO1 mRNA compared to vehicle (0.1% DMSO) control; read-out: EC50
Method: Beas2B NQO1 mRNA Cell Based Assay
The up regulation of the NRF2 mediated gene NAD(P)H:quinone acceptor oxidoreductase 1 (NQO1) was measured using the following assay method: BEAS-2B cells (ATCC CRL-9609) were plated in 96-well clear plates at 20,000 cells/well in 75 μL of cell culture media and incubated overnight (37° C., 5% CO2). On day 2, 25 μL of compound or controls were added to the cells for 24 h. On day 3, the medium was aspirated from the plate and the Cells-to-CT™ 1-Step TaqMan® Kit (Ambion A25603) was used to perform expression analysis directly from cultured cells without RNA purification according to the manufacturer's instructions.
Briefly, cells were washed with ice cold PBS and 22.5 μL of room-temperature DNase/Lysis solution was added to the cells and incubated at room temperature for 5 minutes. To stop the reaction, 2.25 μL of stop solution was added to the cell lysate. The samples were diluted 1:5 using nuclease free water and 2.5 μL transferred into the PCR plate. Real-time PCR was performed using the C-1000 Thermal Cycler (Bio-Rad) using human beta actin as the internal control. The cDNA was amplified with a specific primer for NQO1 using the 1-step RT-PCR master mix (Ambion Cells-to-CTTM 1-Step TaqMan® Kit A25603). The primers/probes sets that were used for amplification of cDNA were obtained from TaqMan Gene Expression Assays (Applied Biosystems). The comparative CT (ΔΔCT) relative quantification method was used to calculate the relative mRNA level of the target gene NQO1 as described in the Applied Biosystems Chemistry Guide. The data are expressed as an increase in target gene mRNA compared to vehicle (0.1% DMSO) control and the EC50 values were determined by fitting the data to a four parameter logistic fit using XLfit or XE Runner within ActivityBase.

[2] = molecular target: T1, human KEAP1 (N-term, residues 321-609) (Homo sapiens, UniProt Q14145); test: KEAP1 Kelch Fluorescence Polarization (FP) Assay; assay type: binding; conditions: inhibition of Kelch domain-NRF2 interaction; 2 nM FITC-labelled NRF2 peptide, 25 nM KEAP1, 1 h room temperature; compounds below 10 nM cannot be differentiated
T1 construct: human KEAP1 (N-term, residues 321-609)
Method: KEAP1 Kelch Fluorescence Polarization (FP) Assay Method
Inhibition of the Kelch domain-NRF2 interaction was determined using a fluorescence polarization-based competition assay in a black 384-well microplate. Compounds were tested at a starting concentration of 10 μM serially diluted 1:3 to generate a 12-point dose response curve on the Biomek FX robot. Each well contained 2 nM FITC-labelled NRF2 peptide (FITC-LDEETGEFL-NH2) and 25 nM human KEAP1 (N-term, residues 321-609) enzyme in a final volume of 20 μL of assay buffer (50 mM Tris-HCl pH 8.0, 100 mM NaCl, 5 mM MgCl2, 0.005% Tween-20, 0.005% BSA, 0.5% DMSO) in the presence of varying concentrations of test compound. Unlabelled peptide (LDEETGEFL-NH2) at 50 μM (negative control) and 0.5% DMSO (positive control) was used to determine the assay window.
After 1 h at room temperature, fluorescence polarization (excitation 470 nm/emission 530 nm) was measured using an Envision plate reader. IC50 values were determined by fitting the data to a four parameter logistic fit using XLfit or XE Runner within ActivityBase. The assay limit is such that compounds below 10 nM cannot be differentiated.

T1 sequence (Q14145 321-609): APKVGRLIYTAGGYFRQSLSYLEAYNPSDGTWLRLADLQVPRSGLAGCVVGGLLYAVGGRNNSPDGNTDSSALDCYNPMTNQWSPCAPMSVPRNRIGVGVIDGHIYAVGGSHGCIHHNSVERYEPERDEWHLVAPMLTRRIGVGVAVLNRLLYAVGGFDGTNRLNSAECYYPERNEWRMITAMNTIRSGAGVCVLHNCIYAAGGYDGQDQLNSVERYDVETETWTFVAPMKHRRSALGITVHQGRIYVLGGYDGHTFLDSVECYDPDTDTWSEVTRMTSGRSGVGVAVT

Structure (SMILES)	EC50 [1] [nM]	IC50 [2] [nM]
CNC(=O)[C@@]1(C)CCCC[C@H]1C(=O)N1CCc2c(Cl)ccc(OCc3nnn(C)c3C(F)F)c2[C@H]1CN1CCCC1=O [Example 69, (1S,2R)-2-((S)-5-chloro-8-((5-(difluoromethyl)-1-methyl-1H-1,2,3-triazol-4-yl)methoxy)-1-((2-oxopyrrolidin-1-yl)methyl)-1,2,3,4-tetrahydroisoquinoline-2-carbonyl)-N,1-dimethylcyclohexane-1-carboxamide]	239	14
Cc1c(COc2c(F)cc(Cl)c3c2[C@@H](CN2CC4(CC4)CC2=O)N(C(=O)[C@@H]2CCCC[C@]2(C)C(N)=O)CC3)nnn1C [Example 112, (1S,2R)-2-((S)-5-chloro-8-((1,5-dimethyl-1H-1,2,3-triazol-4-yl)methoxy)-7-fluoro-1-((6-oxo-5-azaspiro[2.4]heptan-5-yl)methyl)-1,2,3,4-tetrahydroisoquinoline-2-carbonyl)-1-methylcyclohexane-1-carboxamide]	99	7
CNC(=O)[C@H]1CCCC[C@H]1C(=O)N1CCc2c(Cl)ccc(OCc3cn4cccnc4n3)c2[C@H]1CN1CCCC1=O [Example 75, (1S,2R)-2-((S)-5-chloro-8-(imidazo[1,2-a]pyrimidin-2-ylmethoxy)-1-((2-oxopyrrolidin-1-yl)methyl)-1,2,3,4-tetrahydroisoquinoline-2-carbonyl)-N-methylcyclohexane-1-carboxamide]	2170	73
CNC(=O)[C@H]1CCCC[C@H]1C(=O)N1CCc2c(Cl)ccc(OCCc3cn(C)nn3)c2[C@H]1CN1CCCC1=O [Example 66, (1S,2R)-2-((S)-5-chloro-8-(2-(1-methyl-1H-1,2,3-triazol-4-yl)ethoxy)-1-((2-oxopyrrolidin-1-yl)methyl)-1,2,3,4-tetrahydroisoquinoline-2-carbonyl)-N-methylcyclohexane-1-carboxamide]	5660	151
CNC(=O)[C@H]1CCCC[C@H]1C(=O)N1CCc2c(Cl)ccc(OCc3cccnc3)c2[C@H]1CN1CCCC1=O [Example 60, (1S,2R)-2-((S)-5-chloro-1-((2-oxopyrrolidin-1-yl)methyl)-8-(pyridin-3-ylmethoxy)-1,2,3,4-tetrahydroisoquinoline-2-carbonyl)-N-methylcyclohexane-1-carboxamide]	650	72
CNC(=O)[C@@]1(C)CCCC[C@H]1C(=O)N1CCc2c(Cl)cc(F)c(OCc3nnn(C)c3C(F)F)c2[C@H]1CN1CCCC1=O [Example 109, (1S,2R)-2-((S)-5-chloro-8-((5-(difluoromethyl)-1-methyl-1H-1,2,3-triazol-4-yl)methoxy)-7-fluoro-1-((2-oxopyrrolidin-1-yl)methyl)-1,2,3,4-tetrahydroisoquinoline-2-carbonyl)-N,1-dimethylcyclohexane-1-carboxamide]	140	7.5
CNC(=O)CCCOc1cccc2c1[C@@H](CN1C(=O)c3ccccc3C1=O)N(C(=O)[C@@H]1CCCC[C@@H]1C(=O)NC)CC2 [Example 2, (1S,2R)-2-((S)-1-((1,3-dioxoisoindolin-2-yl)methyl)-8-(4-(methylamino)-4-oxobutoxy)-1,2,3,4-tetrahydroisoguinoline-2-carbonyl)-N-methylcyclohexane-1-carboxamide]	–	339
CCC(=O)NC[C@@H]1c2c(cccc2O[C@H]2CCN(C(=O)c3cncs3)C2)CCN1C(=O)[C@@H]1CCCC[C@@H]1C(=O)NC [Example 47, (1S,2R)-N-methyl-2-((S)-1-(propionamidomethyl)-8-(((S)-1-(thiazole-5-carbonyl)pyrrolidin-3-yl)oxy)-1,2,3,4-tetrahydroisoquinoline-2-carbonyl)cyclohexane-1-carboxamide]	–	5330
CNC(=O)N1CCCC[C@H]1C(=O)N1CCc2cccc(O[C@H]3CCN(C(=O)c4cncs4)C3)c2[C@H]1CN1C(=O)c2ccccc2C1=O [Example 28, (S)-2-((S)-1-((1,3-dioxoisoindolin-2-yl)methyl)-8-(((S)-1-(thiazole-5-carbonyl)pyrrolidin-3-yl)oxy)-1,2,3,4-tetrahydroisoquinoline-2-carbonyl)-N-methylpiperidine-1-carboxamide]	–	43
O=C(NCCO)[C@H]1CCCC[C@H]1C(=O)N1CCc2cccc(O[C@H]3CCN(C(=O)c4cncs4)C3)c2[C@H]1CN1C(=O)c2ccccc2C1=O [Example 35, (1S,2R)-2-((S)-1-((1,3-dioxoisoindolin-2-yl)methyl)-8-(((S)-1-(thiazole-5-carbonyl)pyrrolidin-3-yl)oxy)-1,2,3,4-tetrahydroisoquinoline-2-carbonyl)-N-(2-hydroxyethyl)cyclohexane-1-carboxamide]	–	185
CNC(=O)[C@H]1CCCC[C@H]1C(=O)N1CCc2cccc(O[C@H]3CCN(C(=O)c4cncnc4)C3)c2[C@H]1CN1C(=O)c2ccccc2C1=O [Example 14, (1S,2R)-2-((S)-1-((1,3-dioxoisoindolin-2-yl)methyl)-8-(((S)-1-(pyrimidine-5-carbonyl)pyrrolidin-3-yl)oxy)-1,2,3,4-tetrahydroisoquinoline-2-carbonyl)-N-methylcyclohexane-1-carboxamide]	–	183
CNC(=O)[C@H]1CCCCN1C(=O)N1CCc2cccc(O[C@H]3CCN(C(=O)c4cncs4)C3)c2[C@H]1CN1C(=O)c2ccccc2C1=O [Example 48]	–	728
Cc1cc(C(=O)NCCOc2cccc3c2[C@@H](CN2C(=O)c4ccccc4C2=O)N(C(=O)[C@@H]2CCCC[C@@H]2C(=O)NC2CCC2)CC3)no1 [Example 9, N-(2-(((S)-2-((1R,2S)-2-(cyclobutylcarbamoyl)cyclo-hexane-1-carbonyl)-1-((1,3-dioxoisoindolin-2-yl)methyl)-1,2,3,4-tetrahydroisoquinolin-8-yl)oxy)ethyl)-5-methylisoxazole-3-carboxamide]	–	119
CNC(=O)C[C@@H](C)C(=O)N1CCc2cccc(O[C@H]3CCN(C(=O)c4cncs4)C3)c2[C@H]1CN1C(=O)c2ccccc2C1=O [Example 25, (R)-4-((S)-1-((1,3-dioxoisoindolin-2-yl)methyl)-8-(((S)-1-(thiazole-5-carbonyl)pyrrolidin-3-yl)oxy)-3,4-dihydroisoquinolin-2(1H)-yl)-N,3-dimethyl-4-oxobutanamide]	–	292
CNC(=O)CCCC(=O)N1CCc2cccc(O[C@H]3CCN(C(=O)c4cncs4)C3)c2[C@H]1CN1C(=O)c2ccccc2C1=O [Example 40, 5-((S)-1-((1,3-dioxoisoindolin-2-yl)methyl)-8-(((S)-1-(thiazole-5-carbonyl)pyrrolidin-3-yl)oxy)-3,4-dihydroisoquinolin-2(1H)-yl)-N-methyl-5-oxopentanamide]	–	523
CNC(=O)[C@H]1CCCC[C@H]1C(=O)N1CCc2cccc(OCCNC(=O)c3nc4ccccc4o3)c2[C@H]1CN1C(=O)c2ccccc2C1=O [Example 11, N-(2-(((S)-1-((1,3-dioxoisoindolin-2-yl)methyl)-2-((1R,2S)-2-(methylcarbamoyl)cyclo-hexane-1-carbonyl)-1,2,3,4-tetrahydroisoquinolin-8-yl)oxy)ethyl)benzo[d] oxazole-2-carboxamide]	–	37
CCCNC(=O)[C@H]1CCCC[C@H]1C(=O)N1CCc2cccc(O[C@H]3CCN(C(=O)c4cncs4)C3)c2[C@H]1CN1C(=O)c2ccccc2C1=O [Example 29, (1S,2R)-2-((S)-1-((1,3-dioxoisoindolin-2-yl)methyl)-8-(((S)-1-(thiazole-5-carbonyl)pyrrolidin-3-yl)oxy)-1,2,3,4-tetrahydroisoquinoline-2-carbonyl)-N-propylcyclohexane-1-carboxamide]	–	166
